ChEMBL document CHEMBL1134215, “Influence of chain length and N-alkylation on the selective serotonin receptor ligand 9-(aminomethyl)-9,10-dihydroanthracene” (Bioorg Med Chem Lett, 2001)

What was measured:
Format in all cases: cell-based
[1] = molecular target: 5-hydroxytryptamine receptor 2A (Homo sapiens, UniProt P28223); assay: Displacement of [3H]ketanserin from 5-hydroxytryptamine 2A receptor expressed NIH3T3 cells
[2] = molecular target: T1, 5-hydroxytryptamine receptor 2C (Mus musculus, UniProt P34968); assay: Binding affinity to 5-hydroxytryptamine 2C receptor measured using radioligand [3H]Mesulergine in stably transfected NIH3T3 cells
T1 sequence (P34968 whole entry): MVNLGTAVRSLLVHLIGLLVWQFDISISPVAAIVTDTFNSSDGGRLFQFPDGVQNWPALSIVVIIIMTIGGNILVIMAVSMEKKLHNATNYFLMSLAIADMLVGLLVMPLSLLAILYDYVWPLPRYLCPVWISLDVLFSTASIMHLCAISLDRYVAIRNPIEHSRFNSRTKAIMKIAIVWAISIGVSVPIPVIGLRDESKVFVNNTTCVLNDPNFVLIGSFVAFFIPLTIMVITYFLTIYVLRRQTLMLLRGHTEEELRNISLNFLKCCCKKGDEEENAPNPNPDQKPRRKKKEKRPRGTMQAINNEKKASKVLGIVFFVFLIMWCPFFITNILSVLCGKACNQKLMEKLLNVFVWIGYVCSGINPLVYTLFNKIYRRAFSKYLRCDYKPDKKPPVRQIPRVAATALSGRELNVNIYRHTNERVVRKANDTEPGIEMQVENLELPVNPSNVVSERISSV

[3] = molecular target: D(2) dopamine receptor (Mus musculus, UniProt P61168); assay: Binding affinity to Dopamine receptor D2 using [3H]spiperone as radioligand in stably transfected NIH3T3 cells
Chain of D(2) dopamine receptor (P61168 whole entry): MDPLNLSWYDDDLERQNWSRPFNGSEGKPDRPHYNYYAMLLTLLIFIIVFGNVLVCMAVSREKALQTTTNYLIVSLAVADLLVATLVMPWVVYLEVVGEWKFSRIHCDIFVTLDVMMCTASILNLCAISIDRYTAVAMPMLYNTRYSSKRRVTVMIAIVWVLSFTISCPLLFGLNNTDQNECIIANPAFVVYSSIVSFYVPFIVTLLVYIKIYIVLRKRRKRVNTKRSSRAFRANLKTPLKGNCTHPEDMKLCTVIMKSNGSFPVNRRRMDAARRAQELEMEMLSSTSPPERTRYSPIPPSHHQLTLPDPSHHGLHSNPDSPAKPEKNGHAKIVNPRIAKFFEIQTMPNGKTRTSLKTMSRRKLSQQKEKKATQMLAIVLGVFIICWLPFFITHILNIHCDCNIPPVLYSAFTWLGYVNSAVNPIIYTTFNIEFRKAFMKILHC

[4] = molecular target: Sodium-dependent noradrenaline transporter (Mus musculus, UniProt O55192); assay: Binding affinity to Norepinephrine transporter using [3H]-[…] as radioligand in stably transfected NIH3T3 cells
Chain of Sodium-dependent noradrenaline transporter (O55192 whole entry): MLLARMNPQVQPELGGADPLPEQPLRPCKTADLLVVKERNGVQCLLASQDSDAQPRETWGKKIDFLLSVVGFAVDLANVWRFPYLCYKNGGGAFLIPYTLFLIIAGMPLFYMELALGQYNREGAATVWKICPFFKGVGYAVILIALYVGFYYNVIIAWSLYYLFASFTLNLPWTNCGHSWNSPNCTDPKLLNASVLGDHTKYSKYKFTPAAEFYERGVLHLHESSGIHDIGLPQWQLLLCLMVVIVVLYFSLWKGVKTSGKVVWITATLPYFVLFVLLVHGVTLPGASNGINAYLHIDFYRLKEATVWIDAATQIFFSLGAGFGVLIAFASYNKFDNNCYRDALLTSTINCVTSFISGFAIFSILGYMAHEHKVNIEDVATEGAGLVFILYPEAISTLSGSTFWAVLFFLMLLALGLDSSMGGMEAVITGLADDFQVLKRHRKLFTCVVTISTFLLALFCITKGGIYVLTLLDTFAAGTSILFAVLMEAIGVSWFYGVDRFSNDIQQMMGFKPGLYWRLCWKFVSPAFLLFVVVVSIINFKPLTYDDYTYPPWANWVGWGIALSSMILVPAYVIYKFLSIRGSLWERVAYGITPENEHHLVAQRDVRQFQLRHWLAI

[5] = molecular target: Sodium-dependent serotonin transporter (Mus musculus, UniProt Q60857); assay: Binding affinity to Serotonin transporter using [3H]-paroxetine as radioligand in stably transfected NIH3T3 cells
Chain of Sodium-dependent serotonin transporter (Q60857 whole entry): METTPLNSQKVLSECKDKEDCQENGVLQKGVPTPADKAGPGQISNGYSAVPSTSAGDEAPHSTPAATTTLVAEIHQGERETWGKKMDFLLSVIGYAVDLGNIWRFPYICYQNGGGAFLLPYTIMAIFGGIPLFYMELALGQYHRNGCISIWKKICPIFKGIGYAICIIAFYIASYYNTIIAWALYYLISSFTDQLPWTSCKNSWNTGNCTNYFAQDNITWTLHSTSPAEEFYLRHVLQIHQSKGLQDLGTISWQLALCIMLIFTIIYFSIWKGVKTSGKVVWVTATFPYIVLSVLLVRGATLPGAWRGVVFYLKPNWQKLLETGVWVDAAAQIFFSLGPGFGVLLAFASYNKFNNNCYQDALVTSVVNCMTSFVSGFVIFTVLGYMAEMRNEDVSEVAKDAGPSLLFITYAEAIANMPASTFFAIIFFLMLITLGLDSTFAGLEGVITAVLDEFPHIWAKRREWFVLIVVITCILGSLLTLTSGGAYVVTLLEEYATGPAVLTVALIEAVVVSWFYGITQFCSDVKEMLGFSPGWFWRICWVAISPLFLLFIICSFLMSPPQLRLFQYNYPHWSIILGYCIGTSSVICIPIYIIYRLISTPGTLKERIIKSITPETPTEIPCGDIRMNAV

[6] = molecular target: T1, 5-hydroxytryptamine receptor 2C; assay: Binding affinity to 5-hydroxytryptamine 2C receptor using [3H]Mesulergine as radioligand in stably transfected NIH3T3 cells

Chain of 5-hydroxytryptamine receptor 2A (P28223 whole entry): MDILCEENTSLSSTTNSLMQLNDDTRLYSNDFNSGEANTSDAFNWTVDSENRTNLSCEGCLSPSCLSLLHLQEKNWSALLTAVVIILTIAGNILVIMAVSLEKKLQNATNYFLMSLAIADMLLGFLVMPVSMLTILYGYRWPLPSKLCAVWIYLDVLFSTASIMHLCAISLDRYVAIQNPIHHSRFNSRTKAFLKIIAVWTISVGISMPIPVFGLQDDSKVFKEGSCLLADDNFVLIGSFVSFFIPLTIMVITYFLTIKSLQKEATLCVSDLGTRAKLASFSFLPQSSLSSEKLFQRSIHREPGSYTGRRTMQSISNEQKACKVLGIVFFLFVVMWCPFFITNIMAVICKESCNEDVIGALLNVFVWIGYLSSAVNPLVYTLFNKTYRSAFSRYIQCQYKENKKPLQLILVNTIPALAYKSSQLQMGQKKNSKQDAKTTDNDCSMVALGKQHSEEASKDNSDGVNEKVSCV

Ki [1]	Structure (SMILES)	further results
397 nM	NCCCN1c2ccccc2CCc2ccccc21	–
4000 nM	C[N+](C)(C)CC1c2ccccc2Cc2ccccc21	–
12000 nM	NC1c2ccccc2Cc2ccccc21	–
480 nM	NCCC1c2ccccc2Cc2ccccc21	–
540 nM	CN(C)CC1c2ccccc2Cc2ccccc21	–

The remaining lines, values behind:

Structure (SMILES)	Ki [1]	further results
NCCCC1c2ccccc2Cc2ccccc21	32 nM	–
CN(C)CCCC1c2ccccc2Cc2ccccc21	22 nM	–
CNCCCC1c2ccccc2Cc2ccccc21	13 nM	–
c1ccc(CNCC2c3ccccc3Cc3ccccc32)cc1	721 nM	–
NCC1c2ccccc2Cc2ccccc21	–	Ki [2]: 43 nM; Ki [3]: > 10000 nM; Ki [4]: > 10000 nM; Ki [5]: > 10000 nM
CNCC1c2ccccc2Cc2ccccc21	52 nM	–
CN1CCC(=C2c3ccccc3C=Cc3ccccc32)CC1 [CYPROHEPTADINE]	–	Ki [6]: 11 nM; Ki [3]: 112 nM; Ki [4]: 290 nM; Ki [5]: 4100 nM
CN(C)CCCN1c2ccccc2CCc2ccccc21 [IMIPRAMINE]	–	Ki [3]: 726 nM
